Counter-ions that a name gives are not always drawn. Like-named read-outs stand apart in the source and are kept apart here.
What was measured:
[1] = system: HT-1197 cells; test: Cell-based assay: anti-proliferative activity, Cell Counting Kit-8, 72 hours (HT-1197, negative control without MELK expression); conditions: HT1197 cells (negative control), 72 hours
Procedure, shortened: (§1)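 T47D, A549 and BT-549 cells, with MELK-negative HT-1197 as control (MELK status checked by western blot), seeded at 2,000–3,000 cells/well. Growth measured by CCK-8 72 hours after inhibitor exposure; IC50 values calculated.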

[2] = system: DU4475 cells; test: Cell-based assay: anti-proliferative activity, Cell Counting Kit-8, 72 hours (DU4475)
[3] = target: MELK (Homo sapiens, UniProt Q14680); test: Kinase assay: MELK activity, phosphorylation of FITC-labeled histone H3 peptide measured by IMAP fluorescence polarization; format: biochemical; conditions: read-out: IC50 (μM) (kinase assay)
Procedure, shortened: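 A FITC-labelled histone H3 peptide served as substrate, with compounds serially diluted to 1% DMSO final. Reactions were stopped with three volumes of IMAP progressive binding solution. After 0.5 h at room temperature, fluorescence polarization was read.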

[4] = system: A549 cells; test: Cell-based assay: anti-proliferative activity, Cell Counting Kit-8, 72 hours (A549); conditions: 72 hours
Procedure, shortened: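 A549 cells were seeded in 96-well plates and exposed to candidate inhibitors for 72 hours. Cell growth was then measured with Cell Counting Kit-8, and IC50 values were calculated from the resulting growth data.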

[5] = system: T47D cells; test: Cell-based assay: anti-proliferative activity, Cell Counting Kit-8, 72 hours (T47D)
Procedure, shortened: as §1

Sequence of MELK (Q14680 whole entry, looked up): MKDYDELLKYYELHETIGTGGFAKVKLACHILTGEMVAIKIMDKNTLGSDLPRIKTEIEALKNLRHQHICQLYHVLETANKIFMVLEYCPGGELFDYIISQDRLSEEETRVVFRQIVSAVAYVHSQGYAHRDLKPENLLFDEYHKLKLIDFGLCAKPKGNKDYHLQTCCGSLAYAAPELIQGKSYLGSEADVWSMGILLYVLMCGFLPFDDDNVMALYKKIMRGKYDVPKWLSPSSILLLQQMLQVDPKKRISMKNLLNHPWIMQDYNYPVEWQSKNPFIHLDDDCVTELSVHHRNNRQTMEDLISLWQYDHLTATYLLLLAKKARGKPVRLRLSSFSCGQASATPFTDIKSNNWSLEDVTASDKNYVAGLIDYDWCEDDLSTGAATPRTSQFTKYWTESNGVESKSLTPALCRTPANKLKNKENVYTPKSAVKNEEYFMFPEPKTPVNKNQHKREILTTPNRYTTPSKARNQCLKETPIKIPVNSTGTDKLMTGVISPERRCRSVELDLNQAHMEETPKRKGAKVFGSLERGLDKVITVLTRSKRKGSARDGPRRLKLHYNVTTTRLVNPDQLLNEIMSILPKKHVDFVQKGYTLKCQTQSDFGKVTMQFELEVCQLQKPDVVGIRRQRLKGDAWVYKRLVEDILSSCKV

| Compound | IC50 ([1]; Homo sapiens, HT1197, 72 h) | IC50 ([2]; Homo sapiens, DU-4475, 72 h) | IC50 [3] | IC50 ([4]; Homo sapiens, A549, 72 h) | IC50 ([5]; Homo sapiens, T47D, 72 h) | IC50 ([1]; hydrochloride) | IC50 ([2]; hydrochloride) | IC50 ([3]; hydrochloride) | IC50 ([4]; hydrochloride) | IC50 ([5]; 72 hours, hydrochloride) |
| --- | --- | --- | --- | --- | --- | --- | --- | --- | --- | --- |
| Nc1ccc(Nc2c(C(=O)C3CC3)cnc3ccc(-c4cc(Cl)c(O)c(Cl)c4)cc23)cn1 [Example 590, (4-(6-aminopyridin-3-ylamino)-6-(3,5-dichloro-4-hydroxyphenyl)quinolin-3-yl)(cyclopropyl)methanone] | 2.2 µM | 0.19 µM | 0.014 µM | 0.48 µM | 0.48 µM |  |  |  |  |  |
| NC1CCN(c2ccc(Nc3c(C(=O)C4CC4)cnc4ccc(-c5cc(Cl)c(O)c(Cl)c5)cc34)cn2)CC1 [Example 549, (4-(6-(4-Aminopiperidin-1-yl)pyridin-3-ylamino)-6-(3,5-dichloro-4-hydroxyphenyl)quinolin-3-1)(cyclopropyl)methanone hydrochloride] |  |  |  |  |  | 3.2 µM | 0.078 µM | 0.0027 µM | 0.48 µM | 0.15 µM |
| COc1cc(-c2ccc3ncc(C(=O)C4CC4)c(Nc4cnc(N5CCC(N)C5)nc4)c3c2)cc(Cl)c1O (centres unmarked) [Example 582, (4-(2-(3-aminopyrrolidin-1-yl)pyrimidin-5-ylamino)-6-(3-chloro-4-hydroxy-5-methoxyphenyl)quinolin-3-yl)(cyclopropyl)methanone] | 1.1 µM | 0.064 µM | 0.0031 µM | 0.097 µM | 0.052 µM |  |  |  |  |  |
| CN(C)C[C@H]1CC[C@@H](Nc2c(C(=O)C3CC3)cnc3ccc(-c4cc(F)c(O)c(Cl)c4)cc23)CC1 [Example 514, (6-(3-chloro-5-fluoro-4-hydroxyphenyl)-4-((1s,4s)-4-((dimethylamino)methyl)cyclohexylamino)quinolin-3-yl)(cyclopropyl)methanone] | 0.77 µM | 0.21 µM | 0.0028 µM | 0.26 µM | 0.44 µM |  |  |  |  |  |
| NC1CCN(c2ccc(Nc3c(C(=O)C4CC4)cnc4ccc(-c5cc(F)c(O)c(Cl)c5)cc34)cn2)C1 (centres unmarked) [Example 577, (4-(6-(3-aminopyrrolidin-1-yl)pyridin-3-ylamino)-6-(3-chloro-5-fluoro-4-hydroxyphenyl)quinolin-3-yl)(cyclopropyl)methanone hydrochloride] |  |  |  |  |  | 0.52 µM | 0.014 µM | 0.0037 µM | 0.029 µM | 0.0065 µM |
| COc1cc(-c2ccc3ncc(C(=O)C4CC4)c(N[C@H]4CC[C@H](CN5CC[C@@H](F)C5)CC4)c3c2)cc(Cl)c1O [Example 569] | 1.8 µM | 0.41 µM | 0.011 µM | 0.4 µM | 0.62 µM |  |  |  |  |  |
| CN(C)Cc1cccc(Nc2c(C(=O)C3CC3)cnc3ccc(-c4cc(F)c(O)c(Cl)c4)cc23)c1 [Example 629, (6-(3-chloro-5-fluoro-4-hydroxyphenyl)-4-(3-((dimethylamino)methyl)phenylamino)quinolin-3-yl)(cyclopropyl)methanone] | 3.3 µM | 0.069 µM | 0.0051 µM | 0.12 µM | 0.58 µM |  |  |  |  |  |
| COc1cc(-c2ccc3ncc(C(=O)C4CC4)c(Nc4ccc(CCN(C)C)cc4)c3c2)cc(Cl)c1O [Example 612, (6-(3-chloro-4-hydroxy-5-methoxyphenyl)-4-(4-(2-(dimethylamino)ethyl)phenylamino)quinolin-3-yl)(cyclopropyl)methanone] | 4.7 µM | 0.4 µM | 0.0055 µM | 0.72 µM | 0.84 µM |  |  |  |  |  |
| CN[C@H]1CC[C@H](Nc2c(C(C)=O)cnc3ccc(-c4cc(Cl)c(O)c(Cl)c4)cc23)CC1 [Example 558] | 10 µM | 0.043 µM | 0.0025 µM | 0.32 µM | 0.094 µM |  |  |  |  |  |
| CCCC(=O)c1cnc2ccc(-c3cc(F)c(O)c(Cl)c3)cc2c1N[C@H]1CC[C@H](N)CC1 [Example 532, 1-(4-((trans-4-aminocyclohexyl)amino)-6-(3-chloro-5-fluoro-4-hydroxyphenyl)quinolin-3-yl)butan-1-one] | 2.9 µM | 0.03 µM | 0.017 µM | 0.49 µM | 0.046 µM |  |  |  |  |  |

Source: patent US9120749B2, “Quinoline derivatives and MELK inhibitors containing the same” (ONCOTHERAPY SCIENCE, INC., priority 2010, dated 2015)
